Measured values published in patent US12344610B2, “APOL1 inhibitors and methods of use” (Maze Therapeutics, Inc., priority 2022, dated 2025).

What was measured:
Assay type in all cases: cell-based
[1] = system: HEK293 cells overexpressing APOL1 G2; test: APOL1 G2 HEK293 cell rescue assay (reversal of cell death caused by overexpression of APOL1); conditions: Homo sapiens, HEK293, HEK293 overexpressing APOL1 G2; geometric mean of at least 2 assay runs; † = single assay run
How it was run: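 EC50 is the half-maximal effective concentration for reversing cell death driven by APOL1 G2 overexpression in HEK293 cells. Reported as geometric mean of at least 2 runs on separate days, each run averaging duplicate wells per plate; some values from a single run.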

[2] = system: Trypanosoma brucei Lister 427 VSG221 with APOL1 G1 recombinant protein; test: APOL1 G1 trypanosome cell rescue assay (Example B5); conditions: Trypanosoma brucei, 20 h, read-out: APOL1 G1 Trypanosome Rescue EC50, Trypanosoma brucei Lister 427 VSG221 with APOL1 G1 recombinant protein, 20 hours, CellTiter-Glo; geometric mean of at least 2 assay runs; † = single assay run
How it was run: (§1)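 Mature APOL1 (residues 28-398, E. coli-expressed, His-tag removed by TEV) was added as a 2 μg/mL solution to T. brucei Lister 427 VSG221 in modified HMI-9 medium at 250 cells/well, with duplicate 11-point 2-fold compound dilutions (0.4% DMSO). After 20 h at 37° C, 5% CO2, viability was read by CellTiter-Glo luminescence.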

[3] = system: Trypanosoma brucei Lister 427 VSG221 with APOL1 G2 recombinant protein; test: APOL1 G2 trypanosome cell rescue assay (Example B5); conditions: Trypanosoma brucei, 20 h, read-out: APOL1 G2 Trypanosome Rescue EC50, Trypanosoma brucei Lister 427 VSG221 with APOL1 G2 recombinant protein, 20 hours, CellTiter-Glo; geometric mean of at least 2 assay runs; † = single assay run
How it was run: as §1

Row | SMILES | EC50 [1] | EC50 [2] | EC50 [3]
1 | Cc1nc2cc(OCCN3CCC4(CC3)C(=O)Nc3ccc(Cl)cc34)cc(C(F)(F)F)c2n1[C@H]1C[C@@](C)(O)C1 [Compound 442, 5-chloro-1′-[2-({2-methyl-1-[(cis)-3-hydroxy-3-methylcyclobutyl]-7-(trifluoromethyl)-1H-1,3-benzodiazol-5-yl}oxy)ethyl]-1,2-dihydrospiro[indole-3,4′-piperidin]-2-one] | < 0.00308 µM | – | –
2 | C[C@]1(O)C[C@@H](n2c(=O)ccc3cc(OCCN4CCC5(CC4)C(=O)Nc4ccc(Cl)cc45)cnc32)C1 [Compound 323, 5-chloro-1′-[2-({7-oxo-8-[(cis)-3-hydroxy-3-methylcyclobutyl]-7,8-dihydro-1,8-naphthyridin-3-yl}oxy)ethyl]-1,2-dihydrospiro[indole-3,4′-piperidin]-2-one] | 0.0173 µM | 0.0359 µM | 0.0118 µM
3 | CN1C(=O)CCc2cc(OCCN3CCC4(CC3)C(=O)Nc3ccc(C#N)cc34)cnc21 [Compound 79, 1′-{2-[(8-methyl-7-oxo-5,6,7,8-tetrahydro-1,8-naphthyridin-3-yl)oxy]ethyl}-2-oxo-1,2-dihydrospiro[indole-3,4′-piperidine]-5-carbonitrile] | 0.207 µM | 0.952 µM | 0.293 µM
4 | C[C@]1(O)C[C@@H](n2ncc3cc(OCCN4CCC5(CC4)C(=O)Nc4ccc(C#N)cc45)cc(C(F)(F)F)c32)C1 [Compound 465, 2-oxo-1′-[2-({1-[(cis)-3-hydroxy-3-methylcyclobutyl]-7-(trifluoromethyl)-1H-indazol-5-yl}oxy)ethyl]-1,2-dihydrospiro[indole-3,4′-piperidine]-5-carbonitrile] | 0.00886 µM | – | –
5 | O=C1Nc2ccc(Cl)cc2C12CCN(CCOc1cnc(N3CC4(CC(O)C4)C3)nc1)CC2 [Compound 396, 5-chloro-1′-{2-[(2-{6-hydroxy-2-azaspiro[3.3]heptan-2-yl}pyrimidin-5-yl)oxy]ethyl}-1,2-dihydrospiro[indole-3,4′-piperidin]-2-one] | 0.0405 µM | – | –
6 | CC(=O)N1Cc2ccc(OCCN3CCC4(CC3)C(=O)Nc3ccc(Cl)cc34)cc2C1 [Compound 57, 1′-{2-[(2-acetyl-2,3-dihydro-1H-isoindol-5-yl)oxy]ethyl}-5-chloro-1,2-dihydrospiro[indole-3,4′-piperidin]-2-one] | 0.19 µM | 0.672 µM | 0.183 µM
7 | CS(=O)(=O)N1CCCc2cc(OCCN3CCC4(CC3)C(=O)Nc3ccc(Cl)cc34)ccc21 [Compound 53, 5-chloro-1′-{2-[(1-methanesulfonyl-1,2,3,4-tetrahydroquinolin-6-yl)oxy]ethyl}-1,2-dihydrospiro[indole-3,4′-piperidin]-2-one] | 0.0529 µM | 0.157 µM | 0.0478 µM
8 | C[C@]1(O)C[C@@H](n2c(=O)ccc3cc(OCCN4CCC5(CC4)C(=O)Nc4ccc(C(F)F)cc45)cnc32)C1 [Compound 324, 5-(difluoromethyl)-1′-[2-({7-oxo-8-[(cis)-3-hydroxy-3-methylcyclobutyl]-7,8-dihydro-1,8-naphthyridin-3-yl}oxy)ethyl]-1,2-dihydrospiro[indole-3,4′-piperidin]-2-one] | 0.0256 µM | 0.035 µM | 0.00831 µM
9 | Cc1nc2cc(OCCN3CCC4(CC3)C(=O)Nc3ccc(C#N)cc34)cc(C(F)(F)F)c2n1[C@H]1C[C@@](C)(O)C1 [Compound 443, 1′-[2-({2-methyl-1-[(cis)-3-hydroxy-3-methylcyclobutyl]-7-(trifluoromethyl)-1H-1,3-benzodiazol-5-yl}oxy)ethyl]-2-oxo-1,2-dihydrospiro[indole-3,4′-piperidine]-5-carbonitrile] | 0.0102 µM | – | –
10 | C[C@]1(O)C[C@@H](n2ncc3cc(OCCN4CCC5(CC4)C(=O)Nc4ccc(Cl)cc45)cnc32)C1 (single isomer, unassigned) [Compound 357, 5-chloro-1′-[2-({1-[(cis)-3-hydroxy-3-methylcyclobutyl]-1H-pyrazolo[3,4-b]pyridin-5-yl}oxy)ethyl]-1,2-dihydrospiro[indole-3,4′-piperidin]-2-one] | 0.0223 µM | 0.0916 µM | 0.0281 µM
11 | CC1(O)CC2(CN(c3ncc(OCCN4CCC5(CC4)C(=O)Nc4ccc(Cl)cc45)cn3)C2)C1 [Compound 459, 5-chloro-1′-{2-[(2-{6-hydroxy-6-methyl-2-azaspiro[3.3]heptan-2-yl}pyrimidin-5-yl)oxy]ethyl}-1,2-dihydrospiro[indole-3,4′-piperidin]-2-one] | 0.029 µM | 0.133 µM | 0.0498 µM
12 | CS(=O)(=O)C1(c2ncc(OCCN3CCC4(CC3)C(=O)Nc3ccc(Cl)cc34)cn2)CC1 [Compound 4, 5-chloro-1′-(2-{[2-(1-methanesulfonylcyclopropyl)pyrimidin-5-yl]oxy}ethyl)-1,2-dihydrospiro[indole-3,4′-piperidin]-2-one] | 0.0719 µM | 0.171 µM | 0.0519 µM
13 | CC(C)(O)c1ncc(OCCN2CCC3(CC2)C(=O)Nc2ccc(C#N)cc23)cc1C(F)(F)F [Compound 411, 1′-(2-{[6-(2-hydroxypropan-2-yl)-5-(trifluoromethyl)pyridin-3-yl]oxy}ethyl)-2-oxo-1,2-dihydrospiro[indole-3,4′-piperidine]-5-carbonitrile] | 0.0226 µM | – | –
14 | C[C@]1(O)C[C@@H](n2cnc3cc(OCCN4CCC5(CC4)C(=O)Nc4ccc(Cl)cc45)cc(F)c32)C1 [Compound 454, 5-chloro-1′-(2-((7-fluoro-1-((cis)-3-hydroxy-3-methylcyclobutyl)-1H-benzo[d]imidazol-5-yl)oxy)ethyl)spiro[indoline-3,4′-piperidin]-2-one] | 0.0241 µM | – | –
15 | C[C@]1(O)C[C@@H](n2ncc3cc(OCCN4CCC5(CC4)C(=O)Nc4ccc(Cl)cc45)cc(C(F)(F)F)c32)C1 [Compound 464, 5-chloro-1′-[2-({1-[(cis)-3-hydroxy-3-methylcyclobutyl]-7-(trifluoromethyl)-1H-indazol-5-yl}oxy)ethyl]-1,2-dihydrospiro[indole-3,4′-piperidin]-2-one] | 0.00502 µM | – | –
16 | C[C@]1(O)C[C@@H](n2c(=O)oc3cc(OCCN4CCC5(CC4)C(=O)Nc4ccc(Cl)cc45)cnc32)C1 [Compound 394, 5-chloro-1′-[2-({2-oxo-3-[(cis)-3-hydroxy-3-methylcyclobutyl]-2H,3H-[1,3]oxazolo[4,5-b]pyridin-6-yl}oxy)ethyl]-1,2-dihydrospiro[indole-3,4′-piperidin]-2-one] | 0.024 µM | – | –
17 | CC(CO)(c1ncc(OCCN2CCC3(CC2)C(=O)Nc2ccc(Cl)cc23)cc1C(F)(F)F)S(C)(=O)=O (stereo not drawn) [Compound 401, 5-chloro-1′-(2-{[6-(1-hydroxy-2-methanesulfonylpropan-2-yl)-5-(trifluoromethyl)pyridin-3-yl]oxy}ethyl)-1,2-dihydrospiro[indole-3,4′-piperidin]-2-one] | 0.0367 µM | – | –
18 | C[C@]1(O)C[C@@H](n2nnc3cc(OCCN4CCC5(CC4)C(=O)Nc4ccc(Cl)cc45)cc(C(F)(F)F)c32)C1 [Compound 434, 5-chloro-1′-[2-({1-[(cis)-3-hydroxy-3-methylcyclobutyl]-7-(trifluoromethyl)-1H-1,2,3-benzotriazol-5-yl}oxy)ethyl]-1,2-dihydrospiro[indole-3,4′-piperidin]-2-one] | 0.0112 µM | – | –
19 | C[C@]1(O)C[C@@H](n2cnc3cc(OCCN4CCC5(CC4)C(=O)Nc4ccc(C#N)cc45)cc(C(F)(F)F)c32)C1 [Compound 433, 1′-(2-((1-((cis)-3-hydroxy-3-methylcyclobutyl)-7-(trifluoromethyl)-1H-benzo[d]imidazol-5-yl)oxy)ethyl)-2-oxospiro[indoline-3,4′-piperidine]-5-carbonitrile] | 0.0148 µM | – | –
20 | C[C@]1(O)C[C@@H](n2cnc3cc(OCCN4CCC5(CC4)C(=O)Nc4ccc(C(F)F)cc45)cc(C(F)(F)F)c32)C1 [Compound 450, 5-(difluoromethyl)-1′-[2-({1-[(cis)-3-hydroxy-3-methylcyclobutyl]-7-(trifluoromethyl)-1H-1,3-benzodiazol-5-yl}oxy)ethyl]-1,2-dihydrospiro[indole-3,4′-piperidin]-2-one] | 0.0055 µM | – | –
21 | C[C@]1(O)C[C@@H](n2ccc3cc(OCCN4CCC5(CC4)C(=O)Nc4ccc(C(F)F)cc45)cnc32)C1 [Compound 350, 5-(difluoromethyl)-1′-[2-({1-[(cis)-3-hydroxy-3-methylcyclobutyl]-1H-pyrrolo[2,3-b]pyridin-5-yl}oxy)ethyl]-1,2-dihydrospiro[indole-3,4′-piperidin]-2-one] | 0.0188 µM | – | –
22 | CC(C)(CO)c1ncc(OCCN2CCC3(CC2)C(=O)Nc2ccc(Cl)cc23)cn1 [Compound 334, 5-chloro-1′-(2-{[2-(1-hydroxy-2-methylpropan-2-yl)pyrimidin-5-yl]oxy}ethyl)-1,2-dihydrospiro[indole-3,4′-piperidin]-2-one] | 0.11 µM | – | –
23 | C[C@]1(O)C[C@@H](n2cnc3cc(OCCN4CCC5(CC4)C(=O)Nc4c(I)cc(Cl)cc45)cc(C(F)(F)F)c32)C1 [Compound 453, 5-chloro-7-iodo-1′-[2-({1-[(cis)-3-hydroxy-3-methylcyclobutyl]-7-(trifluoromethyl)-1H-1,3-benzodiazol-5-yl}oxy)ethyl]-1,2-dihydrospiro[indole-3,4′-piperidin]-2-one] | 0.0191 µM | – | –
